Laboratory results from US11026945B2, “Protein kinase RNA-like endoplasmic reticulum kinase (PERK) inhibitors for prevention and/or treatment of lung injury and/or inflammation” (THE TRUSTEES OF THE UNIVERSITY OF PENNSYLVANIA, priority 2016, dated 2021).

Experiments:
[1] = system: cleaved caspase 3 (Casp3) in AEC-I monolayers; assay type: cell-based, rat
AEC-I monolayers = assay: Monolayer permeability, FITC-labeled streptavidin binding to biotin; assay type: cell-based, rat
Source text: To obtain monolayer rat type-II alveolar epithelial cells (AEC-II), cells were isolated from Sprague-Dawley rats (250-300 g, N=30 purchased from Charles River Laboratories, Wilmington, Mass.) described by Tschumperlin D J, Margulies SS. Equibiaxial deformation-induced injury of alveolar epithelial cells in vitro. Am J Physiol. 1998; 275(6 Pt 1):L1173-83. Epub 1998/12/09 (PubMed PMID: 9843855), with modifications. Briefly, animals were killed and the lungs were harvested. The lung tissue was digested with elastase at 37° C. and distal airways were isolated. Following, cells were placed on rat IgG coated containing no serum for 90 minutes to eliminate contaminating leukocytes and parenchymal cells. This isolation method yielded approximately 95% pure alveolar epithelial cell population. 1.3 million cells were plated on 1 cm diameter fibronectin-coated custom made silastic membranes. In permeability studies, biotin were mixed with fibronectin and membranes were pretreated with oxygen plasma coating to ensure homogenous distribution of the fibronectin. Cells were cultured with 10% fetal bovine serum (FBS)-containing Minimal Essential Medium (MEM) containing low dose antibiotics for 3 days. 32 to 40 monolayers were per rat. On the 3rd day, matured monolayers were randomized to be exposed to one of the treatments for 24 hours (N=3 monolayers/treatment): • A. RNAiMax transfection reagent treatment using serum free media (Opti-MEM, Thermo Fisher Scientific, Waltham, Mass.). This is a negative control for siRNA experiments where serum free media is used for improved transfection efficiency; • B. non-targeting siRNA treatment ([…], Dharmacon) serves a negative control for transfection; • C. […]
The dose of siRNA and PI treatment was selected based on dose-response curves above (FIG. 2A-FIG. 2E). […] All membranes were treated with FITC-labeled streptavidin (Thermo Fisher Scientific) at the end of the experiment and light emission was detected at 488 nm with fluorescent microscopy (Nikon TE300, Melville, N.Y.). […]

## O=C(/C=C/c1ccccc1)NC(NC(=S)Nc1cccc2cccnc12)C(Cl)(Cl)Cl (stereo not shown) [salubrinal]
[1]; salubrinal, unstretched and stretched monolayers
  Casp3 levels: significant increase
AEC-I monolayers; 10 uM salubrinal 2 hrs pretreatment
  monolayer permeability: increased permeability

## tunicamycin
[1]; tunicamycin 1 μg/ml 24 hrs
  cell death measured with cleaved caspase 3 (Casp3): not related to increased cell death
AEC-I monolayers; 1 ug/ml tunicamycin 24 hrs treatment, vs DMSO vehicle control
  monolayer permeability: increased permeability
